Data published in patent US9808448B2, “Pharmaceutical compounds and use of same in cancer and tauopathies” (THE REGENTS OF THE UNIVERSITY OF MICHIGAN, priority 2013, dated 2017).
Entries after “also recorded” stand apart in the source; their conditions may differ. Read-outs that look alike come from different tables or passages of the source.

Experiments:
MCF7 cells = test: Combination therapy Hsp70 and Hsp90, MCF7 growth; assay type: cell-based; details: with 1 nM rapamycin or 1 nM 17-AAG
Protocol: The cells were then treated with the Hsp70 inhibitor JG-83 or JG-84 alone or in combination with the Hsp90 inhibitor 1 nM rapamycin or 1 nM 17-AAG.

MDA-MB-231 cells = test: Combination cell viability by MTT, MDA-MB-231; assay type: cell-based; details: for combination index CI50 / combination index CI75 / combination index CI90 / combination index CI95: 24 hrs
Protocol: To further test if an Hsp70 inhibitor would have synergistic activity with inhibitors of Hsp90 and the proteasome, MDA-MB-231 cells were treated for 24 hrs with combinations of an HSP70 inhibitor and an HSP90 inhibitor and measured cell viability by MTT assays. […] JG98 was also synergistic at ratios of JG98:17DMAG of 1:1 and at ratios of JG98:bortezomib at 100:1.

[1] = in vivo; cited from earlier work
[2] = system: human 4R0N tau in HeLaC3 cells; test: Tau levels in HeLaC3 cells by Western blot; assay type: cell-based
Protocol: To determine whether YM-08 might also accelerated tau degradation, HeLaC3 cells, which stably over-express human 4R0N tau, were treated with compound. After 24 hours, the levels of phosphorylated (p396/404) tau and total tau were measured by Western blot. […] This cellular activity is not as dramatic as that of MKT-077, which reduced tau levels by >80% at 30 μM (FIG. 4D); however, reducing tau by only about 50% is predicted to provide benefits in some AD models.

[3] = target: prokaryotic Hsp70 (DnaK) binding to denatured luciferase (Escherichia coli, UniProt P0A6Y8); test: Luciferase binding assay; assay type: biochemical; details: 50 μM
Sequence of prokaryotic Hsp70 (DnaK) binding to denatured luciferase (P0A6Y8 whole entry): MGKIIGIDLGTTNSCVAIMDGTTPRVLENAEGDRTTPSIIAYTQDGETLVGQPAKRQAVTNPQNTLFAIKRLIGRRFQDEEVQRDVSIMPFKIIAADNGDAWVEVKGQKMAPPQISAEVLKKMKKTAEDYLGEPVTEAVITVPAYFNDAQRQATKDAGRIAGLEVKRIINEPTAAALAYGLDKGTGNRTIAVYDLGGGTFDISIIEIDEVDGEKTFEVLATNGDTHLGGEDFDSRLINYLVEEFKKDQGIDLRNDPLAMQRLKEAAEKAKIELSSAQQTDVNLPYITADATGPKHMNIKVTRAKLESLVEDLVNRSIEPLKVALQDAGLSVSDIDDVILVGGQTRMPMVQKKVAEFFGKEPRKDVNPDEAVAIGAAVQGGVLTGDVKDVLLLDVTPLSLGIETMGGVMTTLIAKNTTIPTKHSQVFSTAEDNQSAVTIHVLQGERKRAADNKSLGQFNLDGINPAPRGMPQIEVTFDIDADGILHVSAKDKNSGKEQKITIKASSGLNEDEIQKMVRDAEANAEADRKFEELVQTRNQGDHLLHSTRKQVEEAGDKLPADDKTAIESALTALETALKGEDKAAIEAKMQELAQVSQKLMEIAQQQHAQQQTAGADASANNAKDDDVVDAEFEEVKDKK
Protocol: Next, the effect of chaperone functions by binding of YM-08 to Hsp70 was investigated. […] This profile is shared with other allosteric Hsp70 inhibitors. As another test of chaperone function, the effects of the compounds on the binding of Hsp70 to a misfolded protein were measured. In previous work, MKT-077 stabilized the interaction between prokaryotic Hsp70 (DnaK) and denatured luciferase. Briefly, this assay involves immobilizing unfolded luciferase in microtiter plates and measuring binding to DnaK. […] To explore whether YM-08 might also enhance binding of Hsp70 to a more physiologically relevant substrate, binding of tau to immobilized human Hsc70 was measured.
Binding of prokaryotic Hsp70 (DnaK) to denatured luciferase was measured as previously described, in e.g., Miyata, et al., J. Biomol. Screen, 15:1211-1219 (2010). Briefly, firefly luciferase (0.2 mg/mL) was proteolyzed with trypsin and immobilized in 96-well microtiter plates. After washing, the binding of luciferase to DnaK (500 nM) was measured using an anti-DnaK antibody and HRP secondary antibody. A similar strategy was used to monitor binding of human Hsc70 to tau, as previously described in Thompson, et al., ACS Chem. Biol., 7:1677-1686 (2012).

[4] = Phase I, anti-cancer agent; cited from earlier work
[5] = system: MCF-7, MCF-10A and MB-MDA-231 cells; test: MTT assays, three cell lines; assay type: cell-based; details: range over MCF-7, MCF-10A and MB-MDA-231 cells
Protocol: YM-08 was tested whether it might retain the anti-cancer activity of MKT-077.

human Hsc70 (HSPA8) = target: T1, human Hsc70 (HSPA8) (Homo sapiens, UniProt P11142); test: ELISA competitive binding assay (biotinylated MKT-077 displacement)
T1 construct: made in house
T1 sequence (P11142 whole entry): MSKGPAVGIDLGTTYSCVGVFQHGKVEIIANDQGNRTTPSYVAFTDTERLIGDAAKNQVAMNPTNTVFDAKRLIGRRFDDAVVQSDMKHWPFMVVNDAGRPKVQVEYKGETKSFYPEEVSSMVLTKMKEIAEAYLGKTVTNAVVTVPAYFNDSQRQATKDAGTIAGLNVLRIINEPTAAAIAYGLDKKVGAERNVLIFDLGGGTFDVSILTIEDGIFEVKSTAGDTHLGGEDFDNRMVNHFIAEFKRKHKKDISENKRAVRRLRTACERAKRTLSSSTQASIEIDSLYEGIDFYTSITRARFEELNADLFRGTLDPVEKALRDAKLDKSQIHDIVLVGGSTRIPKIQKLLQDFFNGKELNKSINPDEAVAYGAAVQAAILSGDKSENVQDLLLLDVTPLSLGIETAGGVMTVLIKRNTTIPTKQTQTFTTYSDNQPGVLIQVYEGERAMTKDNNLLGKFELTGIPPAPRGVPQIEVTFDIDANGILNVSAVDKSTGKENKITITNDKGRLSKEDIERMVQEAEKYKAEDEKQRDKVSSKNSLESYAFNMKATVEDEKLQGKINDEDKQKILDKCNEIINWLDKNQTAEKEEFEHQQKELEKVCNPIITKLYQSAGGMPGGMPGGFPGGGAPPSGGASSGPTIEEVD
Protocol: Binding of MKT-077 analogs to immobilized Hsp70 was evaluated using a competitive ELISA. In this established assay, a biotinylated version of MKT-077 is bound to immobilized human Hsc70 (HSPA8) and potential competitors are tested for their ability to block the interaction.
A sample of Hsc70 (50 μL; 0.06 mg/mL) was immobilized in clear flat-bottom 96-well plate in MES buffer (50 mM 2-(N-morpholino)ethanesulfonic acid, pH 5.2) at 37° C. overnight. After discarding the excess protein solution, each well was washed three times with 150 μL TBS-T buffer (25 mM Tris, 140 mM NaCl, 2.7 mM KCl, 0.01% Tween-20, pH 7.4). Then, 1 μL of compound (1% DMSO) was diluted into 24 μL of binding buffer (100 mM Tris, 20 mM KCl, 6 mM MgCl2, 0.01% Triton-X100) and incubated at room temperature for 30 min. Biotin labeled MKT-077 (final concentration 1 μM; 25 μL) was subsequently added into each well and the mixture was incubated at room temperature for another 3 hrs. The wells were washed with 150 μL TBS-T buffer three times prior to blocking with 100 μL 3% bovine serum albumin (BSA) in TBS-T buffer for 5 min at room temperature. After the removal of the BSA solution, 50 μL of HRP-streptavidin (Pierce Biotechnology, 1:50000 TBS-T dilution) solution was added and the plates were incubated at room temperature for 1 hr. The HRP-streptavidin solution was removed and wells were washed three times with 150 μL TBS-T. […] substrate (Cell Signaling Technology 100 μL) was added into each well and incubated at room temperature until a visible blue color was shown in wells (about 20 min). 1 M HCl stop solution was then added into each well to yield a yellow solution and the absorbance at 450 nm was recorded on SpectraMax M5 (Molecular Devices).

[6] = Liver microsome stability; assay type: in vitro ADME; details: human liver microsomes
[7] = Initial pharmacokinetics and biodistribution in CD1 mice; assay type: in vivo, mouse; details: i.v., YM-01 20 mg/kg saline, YM-08 10 mg/kg 10% DMSO/saline
Protocol: (A) Initial pharmacokinetics and biodistribution of YM-01 and YM-08. Compounds were suspended in buffered saline (YM-01) or 10% DMSO/saline (YM-08) and injected at 20 and 10 mg/kg, respectively. YM-08 was not soluble in saline or 10% DMSO/saline at 20 mg/kg. The levels of YM-08 in the brain at 1 hr after injection could not be accurately determined because its value was outside the calibration curve. […] Results are average from data acquired from three female mice. (C) YM-08 maintains a B/P ratio of nearly 0.25 for 18 hrs.
The initial pharmacokinetics (PK) of YM-01 and YM-08 were tested in CD1 mice. […] After a single 6.6 mg/kg dose delivered i.v., the peak brain concentration of YM-08 was 4 μg/g (FIG. 7B) and the ratio in the brain:plasma (B/P) ratio was approximately 0.25 for 18 hrs (FIG. 7C). […] It is not yet clear how much tau levels need to be reduced to achieve therapeutic effects in disease models, but the area-under-the-curve (AUCinf) for YM-08 in the brain was 0.26 μg·hr/g and the AUCinf in plasma was 13.6 μg·hr/mL.

MCF-7 = test: Cancer activity screen (MTT cell survival), MCF-7; assay type: cell-based; details: especially in MCF7 cells
[8] = read-out: IC50, inhibition of biotinylated MKT-077 binding to immobilized Hsc70, competitive ELISA, biotin labeled MKT-077 1 μM
[9] = competitive ELISA, biotin labeled MKT-077 1 μM

Molecule: CCn1c(=O)/c(=C2\Sc3cccc(F)c3N2C)s/c1=C\c1scc[n+]1Cc1ccccc1 [JG-83]
- IC50 in combination versus Hsp70 inhibitor alone (MCF7 cells): decreased IC50 concentrations

Molecule: CCn1c(=O)/c(=C2\Sc3cccc(Cl)c3N2C)s/c1=C\c1scc[n+]1Cc1ccccc1 [JG-84]
- IC50 in combination versus Hsp70 inhibitor alone (MCF7 cells): decreased IC50 concentrations

Molecule: CCn1c(=O)/c(=C2\Sc3cc(Cl)ccc3N2C)s/c1=C\c1scc[n+]1Cc1ccccc1.[Cl-] [JG-98]
- synergy (MDA-MB-231 cells; JG98:17DMAG 1:1): synergistic
- combination index CI50 (MDA-MB-231 cells; JG98:17DMAG (10:1)): 1.09
- combination index CI75 (MDA-MB-231 cells; JG98:17DMAG (10:1)): 0.35
- combination index CI90 (MDA-MB-231 cells; JG98:17DMAG (10:1)): 0.27
- combination index CI95 (MDA-MB-231 cells; JG98:17DMAG (10:1)): 0.2
- synergy (MDA-MB-231 cells; JG98:bortezomib 100:1): synergistic
- combination index CI50 (MDA-MB-231 cells; JG98:bortezomib (1:1)): 0.05
- combination index CI75 (MDA-MB-231 cells; JG98:bortezomib (1:1)): 0.05
- combination index CI90 (MDA-MB-231 cells; JG98:bortezomib (1:1)): < 0.02
- combination index CI95 (MDA-MB-231 cells; JG98:bortezomib (1:1)): < 0.02

Molecule: CCn1c(=O)/c(=C2\Sc3ccccc3N2C)s/c1=C\c1cccc[n+]1CC [MKT-077, 1-ethyl-2-((Z)-((E)-3-ethyl-5-(3-methylbenzo[d]thiazol-2(3H)-ylidene)-4-oxothiazolidin-2-ylidene)methyl)pyridin-1-ium]
- BBB crossing [1]: does not cross the BBB
- kidney accumulation [1]: dramatic accumulation of MKT-077 in the kidney
- reduction of tau levels ([2]; 30 μM): > 80%
- enhancement of DnaK binding to denatured luciferase [3]: about 30%
- clinical toxicity [4]: nephrotoxicity in a subset of patients
- EC50 [5]: 1400 to 3000 nM
- IC50 (human Hsc70 (HSPA8)): 6.4 ± 0.23 µM

Molecule: CCn1c(=O)/c(=C2\Sc3ccccc3N2C)s/c1=C\c1cccc[n+]1C [YM-01, 2-((Z)-((E)-3-ethyl-5-(3-methylbenzo[d]thiazol-2(3H)-ylidene)-4-oxothiazolidin-2-ylidene)methyl)-1-methylpyridin-1-ium]
- enhancement of DnaK binding to denatured luciferase [3]: about 30%
- t1/2 [6]: approximately 4 minutes
- kidney distribution ([7]; 0.16 and 1 hrs): prevalent in the kidney
- brain penetration ([7]; 0.16 hrs): lacked detectable brain penetration
- IC50 (human Hsc70 (HSPA8); [8]): 3.2 ± 0.23 µM

Molecule: CCN1C(=O)/C(=C2\Sc3ccccc3N2C)SC1=S [YM-02, (E)-3-ethyl-5-(3-methylbenzo[d]thiazol-2(3H)-ylidene)-2-thioxothiazolidin-4-one]
- anti-cancer activity (MCF-7): residual activity
- anti-tau activity in cells [2]: some residual activity
- activity in luciferase binding assay [3]: reduced activity; also recorded: some residual activity
- IC50 (human Hsc70 (HSPA8); [9]): > 50 µM

Molecule: CCN1C(=O)CS/C1=C\c1ccccn1 [YM-07, (Z)-3-ethyl-2-(pyridin-2-ylmethylene)thiazolidin-4-one]
- anti-cancer activity (MCF-7): residual activity
- activity in luciferase binding assay [3]: reduced activity
- IC50 (human Hsc70 (HSPA8); [9]): ~5.8 µM
- affinity fold worse than YM-08 (human Hsc70 (HSPA8); ratio of ELISA IC50): about 10 fold

Molecule: (E)-3-ethyl-5-(3-methylbenzo[d]thiazol-2(3H)-ylidene)-2-(methylthio)-4-oxo-4,5-dihydrothiazol-3-ium [YM-03]
- activity in luciferase binding assay [3]: reduced activity

Molecule: (Z)-2-((3-ethyl-4-oxothiazolidin-2-ylidene)methyl)-1-methylpyridin-1-ium [YM-04]
- activity in luciferase binding assay [3]: reduced activity
- affinity fold worse than YM-07 (human Hsc70 (HSPA8); ratio of ELISA IC50): about 2 fold
- IC50 (human Hsc70 (HSPA8); [8]): ~15 µM
